Reference: patent publication US20120035155A1, “INDOLE-2-CARBOXAMIDE DEIVATIVE” (MSD K.K., priority 2009, published 2012)

Biological target: T1, human QRFP receptor (GPR103) (Homo sapiens, UniProt Q96P65)
T1 construct: expressed in transfected cells; host or cells: CHO-K1 NFAT β-Lactamase (Aurora); membrane sample
T1 sequence (Q96P65 1-431): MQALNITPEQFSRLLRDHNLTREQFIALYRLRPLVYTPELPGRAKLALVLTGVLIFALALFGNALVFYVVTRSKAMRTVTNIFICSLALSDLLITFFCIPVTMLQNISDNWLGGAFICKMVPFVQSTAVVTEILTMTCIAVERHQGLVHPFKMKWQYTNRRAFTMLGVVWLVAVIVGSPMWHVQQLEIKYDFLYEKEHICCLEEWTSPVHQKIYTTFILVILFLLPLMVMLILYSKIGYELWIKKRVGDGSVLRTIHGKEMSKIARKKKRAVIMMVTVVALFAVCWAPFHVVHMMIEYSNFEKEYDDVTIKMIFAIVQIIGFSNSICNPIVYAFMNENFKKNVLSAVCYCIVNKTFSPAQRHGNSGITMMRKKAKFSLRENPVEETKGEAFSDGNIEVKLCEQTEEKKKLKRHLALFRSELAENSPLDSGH
Experiment: QRFP43-Binding Inhibitory Test
Settings: inhibition of specific [125I] QRFP43 binding; membrane sample of CHO-K1 NFAT β-Lactamase cells expressing GPR103; 25° C., 1 hour
From the text: A cDNA sequence [Accession No. NM_198179] coding for a human QRFP receptor (GPR103) was cloned in an expression vector pEF1V5-H isB (by Invitrogen). The resulting expression vector was transfected in a host cell CHO-K1 NFAT β-Lactamase (by Aurora), according to a cationic lipid process [see Proceedings of the National Academy of Sciences of the United States of America, Vol. 84, p. 7413, 1987], thereby producing a QRFP receptor (GPR103).
A membrane sample prepared from the cells having expressed a QRFP receptor (GPR103) was incubated in an assay buffer (50 mM Tris-HCl, 1 mM EDTA and 0.1% BSA, pH 7.4) along with a test compound and 20,000 cpm [^125I] QRFP43 (by Perkin Elmer) therein, at 25° C. for 1 hour, and then filtered through a glass filter GF/C. After washed with 50 mM Tris-HCl (containing 2 mM EDTA, 10 mM MgCl2 and 0.04% Tween-20) buffer (pH 7.4), the radioactivity on the glass filter was determined. The non-specific binding was determined in the presence of 1 μM peptide QRFP43, and the 50% inhibitory concentration (IC50) of the test compound to the specific [^125I] QRFP43 binding was computed [see Endocrinology, Vol. 131, p. 2090, 1992].

| SMILES | IC50 [nM] |
| --- | --- |
| CCN1CCc2cc(CNC(=O)c3cc4ccccc4n3C)ccc2C1 [Example 2, N-(2-ethyl-1,2,3,4-tetrahydroisoquinolin-6-ylmethyl)-1-methyl-1H-indole-2-carboxamide] | 49 |
| CNCc1ccc2c(c1)CCN(C(=O)c1cc3ccccc3n1C)C2 [Example 5, [6-Methylaminomethyl-3,4-dihydro-2(1H)isoquinolin-2-yl](1-methyl-1H-indol-2-yl)methanone] | 19 |
| Cn1c(C(=O)NCc2ccc3c(c2)CCN(C2CCCC2)C3)cc2ccccc21 [Example 3, N-(2-cyclopentyl-1,2,3,4-tetrahydroisoquinolin-6-ylmethyl)-1-methyl-1H-indole-2-carboxamide] | 45 |
| Cn1c(C(=O)NCc2ccc3c(c2)CCNC3)cc2ccccc21 [Example 1, 1-Methyl-N-(1,2,3,4-tetrahydroisoquinolin-6-ylmethyl)-1H-indole-2-carboxamide] | 61 |
| CN(C)Cc1ccc2c(c1)CCN(C(=O)c1cc3ccccc3n1C)C2 [Example 4, [6-Dimethylaminomethyl-3,4-dihydro-2(1H)isoquinolin-2-yl](1-methyl-1H-indol-2-yl)methanone] | 5.8 |

Second part, the molecule after the results:

| IC50 [nM] | SMILES |
| --- | --- |
| 25 | CNCc1ccc2c(c1)CCN(C(=O)c1cc3cc(Cl)ccc3n1C)C2 [Example 8, [6-methylaminomethyl-3,4-dihydro-2(1H)isoquinolin-2-yl](5-chloro-1-methyl-1H-indol-2-yl)methanone] |
| 6.1 | CN(C)Cc1ccc2c(c1)CCN(C(=O)c1cc3cc(Cl)ccc3n1C)C2 [Example 7, [6-Dimethylaminomethyl-3,4-dihydro-2(1H)isoquinolin-2-yl](5-chloro-1-methyl-1H-indol-2-yl)methanone] |
| 43 | Cn1c(C(=O)N2CCc3cc(CN4CCC4)ccc3C2)cc2ccccc21 [Example 6, [6-(Azetidin-1-ylmethyl)-3,4-dihydro-2(1H)isoquinolin-2-yl](1-methyl-1H-indol-2-yl)methanone] |
